Results taken from ChEMBL document CHEMBL5729684, “Pharmaceutical compounds” (2023).

Experiment: Plaque Reduction Assay: Hep-G2 cells (ECACC, 85011430) were passaged in flasks and seeded in 24-well plates in DMEM containing antibiotics and supplemented with 10% FBS. During inoculation and subsequent incubation, cells were cultured in DMEM containing 2% FBS. 100 plaque forming unit/well of RSV (RSV A2 ECACC, 0709161v) was mixed with eight serial dilutions of compound. Subsequently, 100 μL of the virus/compound mixtures was added to confluent Hep-G2 cell monolayers. The cells and virus/compound mixtures were incubated at 37° C. in a humidified 5% CO2 incubator for 2 h prior to removal of the inoculum and addition of 1 mL of overlay (DMEM containing 2% FBS and 0.8% CMC) containing compound dilutions. The cells and were incubated at 37° C. in a humidified 5% CO2 incubator for 2 days.Cells were washed with PBS before adding 75/25% […] EtOH/MeOH, for 3 min. Fixative was removed and plates were washed with PBS. A pre-titrated amount of the primary antibody was added in 200 μL PBS/2% milk powder, and plates incubated for 90 min at 37° C. The plates were washed 3 times with PBS/0.05% Tween20 before addition of rabbit anti-goat horse radish peroxidase in 200 μL PBS/2% milk powder, and incubated for 1 h at 37° C. Following three wash steps with PBS/0.05% Tween20, 200 μL ready-to-use TrueBlue was added and plates were incubated at rt for 10-15 min before washing with water. After removal of water, plates were air-dried in the dark.Plates were scanned and analysed using the Immunospot S6 Macro analyser, which is equipped with BioSpot analysis software for counting immunostained plaques (virospots). Plaque counts were used to calculate % c infection relative to the mean of the plaque count in the virus control wells for RSV. The EC50 value was calculated as 50% reduction in signal, respectively, by interpolation of inhibition curves fitted with a 4-parameter nonlinear regression with a variable slope in Dotmatics.
Conditions: HepG2

SMILES	EC50
O=C(N[C@H]1N=C(c2ccccc2)c2cccc(F)c2NC1=O)c1c(-c2ccccc2)nn2cccnc12	90 nM
Cc1cc(NC(C)C)ncc1-c1nn2cccnc2c1C(=O)N[C@H]1N=C(c2ccccc2)c2cccc(F)c2NC1=O	74 nM
Cc1ccnc2c(C(=O)N[C@H]3N=C(c4ccccc4)c4cccc(F)c4NC3=O)c(-c3ccccc3F)nn12	27 nM
Cc1nc(NC(C)C)ccc1-c1nn2cccnc2c1C(=O)N[C@H]1N=C(c2ccccc2)c2ccccc2NC1=O	41 nM
Cc1nc(NC(C)C)ccc1-c1nn2cccnc2c1C(=O)N[C@H]1N=C(c2ccccc2)c2cccc(F)c2NC1=O	25 nM
